Source: US8884013B2, “Polymorphs of Dasatinib, preparation methods and pharmaceutical compositions thereof” (Nan Jing Cavendish Bio-Engineering Technology Co., Ltd., priority 2010, dated 2014)

Assay: Comparative test on stability: destruction experiment, related substances by HPLC
Format: physicochemical
Experimental: The methods of destruction experiment of the Polymorph I and II of this invention (hereinafter referred to as ‘Polymorph I’ and ‘Polymorph II’) contrasting with the Polymorph A of Dasatinib prepared by the method in CN200580011916.6 (hereinafter referred to as ‘916.6 Polymorph A’) and results of stability are followed:
Oxidation destruction: 50 mg of sample weighted accurately was added into measuring flask of 100 mL, and 10 mL 30% H2O2 was added. After standing at room temperature for 2 hour, the mixture was diluted with mobile phase to scale and shook to be homogeneous, and determined by HPLC.
(§1) Acid destruction: 50 mg of sample weighted accurately was added into measuring flask of 100 mL, and 10 mL 1 mol/L HCl solution was added. After standing at 40° C. for 1 hour, an equal amount of 1 mol/L NaOH solution was added for neutralization. Then the mixture was diluted with mobile phase to scale and shook to be homogeneous, and determined by HPLC.
as §1, with “Alkali” for “Acid”, “NaOH” for “HCl”, “HCl” for “NaOH”
Illumination destruction: 50 mg of sample weighted accurately was added into measuring flask of 100 mL, dissolved and diluted with mobile phase to be the solution containing 0.5 mg Dasatinib per milliliter. After standing under illumination of 4000 lx for 6 hour, the mixture was determined by HPLC.
High temperature destruction: 50 mg of sample weighted accurately was added into measuring flask of 100 mL, dissolved and diluted with mobile phase to be the solution containing 0.5 mg Dasatinib per milliliter. After standing in homothermal water bath of 60° C. for 4 hour, the mixture was cooled and then determined by HPLC.
Related Substances Determination
HPLC conditions and system applicability: octadecylsilane bonded silica as the filler; 0.05 mol/L of potassium dihydrogen phosphate (adjusted to pH 2.5 by phosphoric acid, 0.2% triethylamine)-methanol (45:55) as the mobile phase; detection wavelength was 230 nm; the number of theoretical plates should be not less than 2000, calculated according to the peak of Dasatinib. The resolution of the peak of Dasatinib from the peaks of adjacent impurities should meet requirements.
Determination method: sample was dissolved in mobile phase to be the solution containing 0.5 mg per milliliter. 20 μL of such solution was injected into liquid chromatograph, and chromatogram was recorded until the sixfold retention time of major component peak. If there were impurities peaks in the chromatogram of sample solution, total impurities and any single impurity were calculated by normalization method on the basis of peak area.

Stability by comparison with Polymorph I: worse performance in stability | Impurity tR3.580 (1 mol/L acid destruction): 0.01% | Impurity tR4.106 (1 mol/L acid destruction): 0.02% | Impurity tR5.001 (1 mol/L acid destruction): 0.02% | Total impurities (1 mol/L acid destruction (HCl, 40° C., 1 hour)): 0.06% | Impurity tR4.107 (1 mol/L alkali destruction): 0.01% | Impurity tR5.007 (1 mol/L alkali destruction): 0.03% | Impurity tR5.351 (1 mol/L alkali destruction): 0.03% | Impurity tR8.943 (1 mol/L alkali destruction): 0.01% | Total impurities (1 mol/L alkali destruction (NaOH, 40° C., 1 hour)): 0.11% | Impurity tR4.135 (before destruction): 0.02% | Impurity tR5.092 (before destruction): 0.02% | Impurity tR5.523 (before destruction): 0.03% | Total impurities (before destruction): 0.07% | Impurity tR4.118 (high temperature destruction): 0.02% | Impurity tR5.081 (high temperature destruction): 0.03% | Impurity tR5.502 (high temperature destruction): 0.03% | Total impurities (high temperature destruction (60° C. water bath, 4 hour, in solution)): 0.08% | Impurity tR2.456 (illumination destruction): 0.30% | Impurity tR3.732 (illumination destruction): 0.14% | Impurity tR4.589 (illumination destruction): 0.11% | Impurity tR5.088 (illumination destruction): 0.06% | Impurity tR5.503 (illumination destruction): 0.19% | Impurity tR10.095 (illumination destruction): 0.82% | Total impurities (illumination destruction (4000 lx, 6 hour, in solution)): 1.89% | Impurity tR4.123 (oxidation destruction): 0.01% | Impurity tR4.584 (oxidation destruction): 0.02% | Impurity tR5.089 (oxidation destruction): 0.02% | Impurity tR5.504 (oxidation destruction): 0.05% | Impurity tR9.450 (oxidation destruction): 2.30% | Total impurities (oxidation destruction (30% H2O2, room temperature, 2 hour)): 2.41%
SMILES: Cc1nc(Nc2ncc(C(=O)Nc3c(C)cccc3Cl)s2)cc(N2CCN(CCO)CC2)n1 [916.6 Polymorph A, N-(2-chloro-6-methylphenyl)-2-[[6-[4-(2-hydroxyethyl)-1-piperazinyl]-2-methyl-4-pyrimidyl]amino]-5-thiazolformamide, reference compound]
